Experimental data as given in patent publication US9458181B2, “Cathepsin cysteine protease inhibitors” (Merck Sharp & Dohme Corp., priority 2013, dated 2016).

Assays:
human cathepsin F = target: T1, human cathepsin F (Homo sapiens, UniProt Q9UBX1); test: Cathepsin F assay (hCat F); type: biochemical; settings: human cathepsin F 10 nM, Z-Phe-Arg-AMC 8 μM, pH 5.5, 15 min preincubation; read-out: hCat F IP
T1 sequence (Q9UBX1 271-484): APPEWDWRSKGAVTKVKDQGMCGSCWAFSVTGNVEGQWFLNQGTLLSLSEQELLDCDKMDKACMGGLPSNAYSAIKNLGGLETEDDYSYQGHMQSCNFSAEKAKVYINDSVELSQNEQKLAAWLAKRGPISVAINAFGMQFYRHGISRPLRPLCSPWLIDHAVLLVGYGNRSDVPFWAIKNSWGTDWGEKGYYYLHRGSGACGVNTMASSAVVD
Procedure, shortened: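 Human cathepsin F (10 nM) in 50 mM MES pH 5.5, 2.5 mM EDTA, 2.5 mM DTT, 10% DMSO was preincubated 15 min at RT with compounds from a ⅓ DMSO dilution series (500–0.025 μM stocks). Z-Phe-Arg-AMC was added (8 μM as added), and AMC release was read by fluorescence (360/460 nm) for 20 min. Percent inhibition was fitted to a dose-response model.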

human cathepsin K = human cathepsin K (UniProt P43236); test: Cathepsin K Assay (hrbCat K); type: biochemical; settings: human cathepsin K 0.4 nM, Z-Leu-Arg-AMC 8 μM, pH 5.5, 15 min preincubation; read-out: hrbCat K IP
Procedure, shortened: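 Human cathepsin K (0.4 nM) in pH 5.5 MES buffer with EDTA, DTT and 10% DMSO was preincubated 15 min at room temperature with compound from a ⅓ dilution series (500-0.025 μM DMSO stocks). Z-Leu-Arg-AMC (8 μM) was then added, and AMC release was followed fluorometrically (Ex 360/Em 460 nm) for 30 min; inhibition was fitted to a dose-response model.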

Row | SMILES | IC50 (human cathepsin F) [nM] | IC50 (human cathepsin K) [nM]
1 | Cc1ncc(-c2nc(-c3ccc(N4CCS(=O)(=O)CC4)cc3)c([C@@H]3CCCC[C@H]3C(=O)NC3(C#N)CC3)o2)s1 [Example 73, (1R,2R)-N-(1-cyanocyclopropyl)-2-(4-(4-(1,1-dioxidothiomorpholino)phenyl)-2-(2-methylthiazol-5-yl)oxazol-5-yl)cyclohexanecarboxamide] | 1490 | 1.42
2 | N#CC1(NC(=O)[C@@H]2CCCC[C@H]2c2oc(-c3ccccc3Cl)nc2-c2ccc(N3CCS(=O)(=O)CC3)cc2)CC1 [Example 75, (1R,2R)-2-(2-(2-chlorophenyl)-4-(4-(1,1-dioxidothiomorpholino)phenyl)oxazol-5-yl)-N-(1-cyanocyclopropyl) cyclohexanecarboxamide] | 865 | 2.06
3 | N#CC1(NC(=O)[C@@H]2CCCC[C@H]2c2oc(-c3nccs3)nc2-c2ccc(N3CCS(=O)(=O)CC3)cc2)CC1 [Example 78, (1R,2R)-N-(1-cyanocyclopropyl)-2-(4-(4-(1,1-dioxidothiomorpholino)phenyl)-2-(thiazol-2-yl)oxazol-5-yl)cyclohexanecarboxamide] | 2650 | 2.49
4 | N#CC1(NC(=O)[C@@H]2CCCC[C@H]2c2oc(-c3ncccc3C(F)(F)F)nc2-c2ccc(N3CCS(=O)(=O)CC3)cc2)CC1 [Example 80, (1R,2R)-N-(1-cyanocyclopropyl)-2-(4-(4-(1,1-dioxidothiomorpholino)phenyl)-2-(3-(trifluoromethyl)pyridin-2-yl)oxazol-5-yl)cyclohexanecarboxamide] | 1490 | 2.43
5 | N#CC1(NC(=O)[C@@H]2CCCC[C@H]2c2oc(-c3ccc(C(F)(F)F)cn3)nc2-c2ccc(N3CCS(=O)(=O)CC3)cc2)CC1 [Example 81, (1R,2R)-N-(1-cyanocyclopropyl)-2-(4-(4-(1,1-dioxidothiomorpholino)phenyl)-2-(5-(trifluoromethyl)pyridin-2-yl)oxazol-5-yl)cyclohexanecarboxamide] | 3060 | 2.99
6 | Cc1nccc(-c2nc(-c3ccc(N4CCS(=O)(=O)CC4)cc3)c([C@@H]3CCCC[C@H]3C(=O)NC3(C#N)CC3)o2)n1 [Example 82, (1R,2R)-N-(1-cyanocyclopropyl)-2-(4-(4-(1,1-dioxidothiomorpholino)phenyl)-2-(2-methylpyrimidin-4-yl)oxazol-5-yl)cyclohexanecarboxamide] | 5140 | 2.66
7 | N#CC1(NC(=O)[C@@H]2CCCC[C@H]2c2oc(-c3cc(C(F)(F)F)ccn3)nc2-c2ccc(N3CCS(=O)(=O)CC3)cc2)CC1 [Example 83, (1R,2R)-N-(1-cyanocyclopropyl)-2-(4-(4-(1,1-dioxidothiomorpholino)phenyl)-2-(4-(trifluoromethyl)pyridin-2-yl)oxazol-5-yl)cyclohexanecarboxamide] | 4150 | 1.3
8 | N#CC1(NC(=O)[C@@H]2CCCC[C@H]2c2oc(-c3ncccc3F)nc2-c2ccc(N3CCS(=O)(=O)CC3)cc2)CC1 [Example 84, (1R,2R)-N-(1-cyanocyclopropyl)-2-(4-(4-(1,1-dioxidothiomorpholino)phenyl)-2-(3-fluoropyridin-2-yl)oxazol-5-yl)cyclohexanecarboxamide] | 4230 | 2.92
9 | N#CC1(NC(=O)[C@@H]2CCCC[C@H]2c2oc(-c3cnc(C(F)(F)F)nc3)nc2-c2ccc(N3CCS(=O)(=O)CC3)cc2)CC1 [Example 85, (1R,2R)-N-(1-cyanocyclopropyl)-2-(4-(4-(1,1-dioxidothiomorpholino)phenyl)-2-(2-(trifluoromethyl)pyrimidin-5-yl)oxazol-5-yl)cyclohexanecarboxamide] | 2520 | 1.57
10 | N#CC1(NC(=O)[C@@H]2CCCC[C@H]2c2oc(-c3cccc(OC(F)(F)F)c3)nc2-c2ccc(N3CCS(=O)(=O)CC3)cc2)CC1 [Example 86, (1R,2R)-N-(1-cyanocyclopropyl)-2-(4-(4-(1,1-dioxidothiomorpholino)phenyl)-2-(3-(trifluoromethoxy)phenyl)oxazol-5-yl)cyclohexanecarboxamide] | 1830 | 2.62
11 | N#CC1(NC(=O)[C@@H]2CCCC[C@H]2c2oc(-c3cncc(C(F)(F)F)c3)nc2-c2ccc(N3CCS(=O)(=O)CC3)cc2)CC1 [Example 88, (1R,2R)-N-(1-cyanocyclopropyl)-2-(4-(4-(1,1-dioxidothiomorpholino)phenyl)-2-(5-(trifluoromethyl)pyridin-3-yl)oxazol-5-yl)cyclohexanecarboxamide] | 2380 | 2.21
12 | N#CC1(NC(=O)[C@@H]2CCCC[C@H]2c2oc(-c3ncccn3)nc2-c2ccc(N3CCS(=O)(=O)CC3)cc2)CC1 [Example 90, (1R,2R)-N-(1-cyanocyclopropyl)-2-(4-(4-(1,1-dioxidothiomorpholino)phenyl)-2-(pyrimidin-2-yl)oxazol-5-yl)cyclohexanecarboxamide] | ≥ 10000 | 7.28
13 | N#CC1(NC(=O)[C@@H]2CCCC[C@H]2c2oc(-c3ccc(OC(F)F)nc3)nc2-c2ccc(N3CCS(=O)(=O)CC3)cc2)CC1 [Example 91, (1R,2R)-N-(1-cyanocyclopropyl)-2-(2-(6-(difluoromethoxy)pyridin-3-yl)-4-(4-(1,1-dioxidothiomorpholino)phenyl)oxazol-5-yl)cyclohexanecarboxamide] | 1670 | 1.3
14 | N#Cc1cccc(-c2nc(-c3ccc(N4CCS(=O)(=O)CC4)cc3)c([C@@H]3CCCC[C@H]3C(=O)NC3(C#N)CC3)o2)c1 [Example 93, (1R,2R)-N-(1-cyanocyclopropyl)-2-(2-(3-cyanophenyl)-4-(4-(1,1-dioxidothiomorpholino)phenyl)oxazol-5-yl)cyclohexanecarboxamide] | 1100 | 1.89

Now those with a lower IC50 (human cathepsin F), led by results:

Row | IC50 (human cathepsin F) [nM] | IC50 (human cathepsin K) [nM] | SMILES
15 | 511 | 1.59 | COc1cccc(-c2nc(-c3ccc(N4CCS(=O)(=O)CC4)cc3)c([C@@H]3CCCC[C@H]3C(=O)NC3(C#N)CC3)o2)c1 [Example 71, (1R,2R)-N-(1-cyanocyclopropyl)-2-(4-(4-(1,1-dioxidothiomorpholino)phenyl)-2-(3-methoxyphenyl)oxazol-5-yl)cyclohexanecarboxamide]
16 | 750 | 1.49 | COc1ccccc1-c1nc(-c2ccc(N3CCS(=O)(=O)CC3)cc2)c([C@@H]2CCCC[C@H]2C(=O)NC2(C#N)CC2)o1 [Example 72, (1R,2R)-N-(1-cyanocyclopropyl)-2-(4-(4-(1,1-dioxidothiomorpholino)phenyl)-2-(2-methoxyphenyl)oxazol-5-yl)cyclohexanecarboxamide]
17 | 645 | 1.46 | N#Cc1ccc(-c2nc(-c3ccc(N4CCS(=O)(=O)CC4)cc3)c([C@@H]3CCCC[C@H]3C(=O)NC3(C#N)CC3)o2)cc1 [Example 74, (1R,2R)-N-(1-cyanocyclopropyl)-2-(2-(4-cyanophenyl)-4-(4-(1,1-dioxidothiomorpholino)phenyl)oxazol-5-yl)cyclohexanecarboxamide]
18 | 533 | 0.65 | N#CC1(NC(=O)[C@@H]2CCCC[C@H]2c2oc(-c3cccc(C4CC4)c3)nc2-c2ccc(N3CCS(=O)(=O)CC3)cc2)CC1 [Example 77, (1R,2R)-N-(1-cyanocyclopropyl)-2-(2-(3-cyclopropylphenyl)-4-(4-(1,1-dioxidothiomorpholino)phenyl)oxazol-5-yl)cyclohexanecarboxamide]
19 | 124 | 0.51 | N#CC1(NC(=O)[C@@H]2CCCC[C@H]2c2oc(-c3ccccc3C3CC3)nc2-c2ccc(N3CCS(=O)(=O)CC3)cc2)CC1 [Example 79, (1R,2R)-N-(1-cyanocyclopropyl)-2-(2-(2-cyclopropylphenyl)-4-(4-(1,1-dioxidothiomorpholino)phenyl)oxazol-5-yl)cyclohexanecarboxamide]
20 | 819 | 1.35 | CC(C)(C)c1ccc(-c2nc(-c3ccc(N4CCS(=O)(=O)CC4)cc3)c([C@@H]3CCCC[C@H]3C(=O)NC3(C#N)CC3)o2)cc1 [Example 89, (1R,2R)-2-(2-(4-(tert-butyl)phenyl)-4-(4-(1,1-dioxidothiomorpholino)phenyl)oxazol-5-yl)-N-(1-cyanocyclopropyl) cyclohexanecarboxamide]
21 | 803 | 0.92 | N#CC1(NC(=O)[C@@H]2CCCC[C@H]2c2oc(-c3cncc(N4CCS(=O)(=O)CC4)c3)nc2-c2ccc(N3CCS(=O)(=O)CC3)cc2)CC1 [Example 92, (1R,2R)-N-(1-cyanocyclopropyl)-2-(4-(4-(1,1-dioxidothiomorpholino)phenyl)-2-(5-(1,1-dioxidothiomorpholino)pyridin-3-yl)oxazol-5-yl)cyclohexanecarboxamide]
22 | 380 | 1.2 | N#CC1(NC(=O)[C@@H]2CCCC[C@H]2c2oc(-c3ccc(Cl)cc3F)nc2-c2ccc(N3CCS(=O)(=O)CC3)cc2)CC1 [Example 94, (1R,2R)-2-(2-(4-chloro-2-fluorophenyl)-4-(4-(1,1-dioxidothiomorpholino)phenyl)oxazol-5-yl)-N-(1-cyanocyclopropyl) cyclohexanecarboxamide]
